Experiments:
human skeletal myotubes = assay: Quantitative lipidomic analyses and TAG biosynthesis pathway modeling; format: cell-based; settings: oleate-loaded myotubes
Protocol: Quantitative lipidomic analyses was performed on human skeletal myotubes exposed to bovine albumin serum (BSA) or 100 μM oleate in the presence of DMSO vehicle (white bars) or 10 μM SBI-477 (black bars) for 24 hours.
Primary human myotubes were treated with BSA or 100 μM oleate with 10 μM SBI-477 or a vehicle control for 24 hours. The cells were added to […] in an Eppendorf tube and homogenized for 1 minute using a disposable soft tissue homogenizer. A 25 μL aliquot was used to determine the protein content (BCA protein assay kit, Thermo Scientific, Rockford, Ill.). The remaining homogenate was accurately transferred into a disposable glass culture test tube, and a mixture of lipid internal standards was added prior to lipid extraction for quantification of all reported lipid species. Lipid extraction was performed by using a modified Bligh and Dyer procedure as described previously (Wang and Han, 2014). Each lipid extract was resuspended into a volume of 500 μL of chloroform/methanol (1:1, v/v) per mg of protein and flushed with nitrogen, capped, and stored at −20° C. for lipid analysis. For ESI direct infusion analysis, lipid extract was further diluted to a final concentration of ˜500 fmol/μL, and the mass spectrometric analysis was performed on a QqQ mass spectrometer (Thermo TSQ VANTAGE, San Jose, Calif.) equipped with an automated nanospray device (TriVersa NanoMate, Advion Bioscience Ltd., Ithaca, N.Y.).
Intracellular TAG can be formed through reacylation of DAG species generated from several pathways including a de novo glycerolphosphate biosynthetic pathway that involves dephosphorylation of phosphatidic acid (DAGPA), reacylation of monoacylglycerol (DAGMAG), and to a lesser extent, hydrolysis of phosphatidyl inositol (DAGPI). […] This approach uses the individual TAG ion profile, as determined by mass spectrometry, to predict the relative contribution of each pathway to the overall cellular TAG pool. […]

primary human myotubes = assay: Fatty acid uptake (3H-oleate); format: cell-based; settings: 10 μM, 24 hours
Protocol: FIGS. 1A-1C show SBI-477 as a small molecule inhibitor of neutral lipid accumulation in human skeletal myotubes. […] Data is shown as percent of DMSO vehicle control. Representative of >5 experiments. FIGS. 1B and 1C show dose-dependent inhibition of myocyte TAG accumulation by SBI-477. FIG. 1B—primary human myotubes were incubated with the indicated concentrations of SBI-477, 1 μM triascin C, 1 μM A922500 (DGAT inhibitor) or vehicle control with 100 μM oleate for 24 hours. Fatty acid free bovine serum albumin (BSA) was included as non-lipid loading control. Bars represent mean triglyceride level normalized to total protein±SD. *p<0.001 vs. oleate/vehicle control by one-way ANOVA with Bonferroni post hoc test. FIG. 1C—primary human myotubes were incubated with 10 μM SBI-477 or vehicle control for 24 hours. Fatty acid (FA) uptake was measured as cellular uptake of 3H-oleate. Bars represent fatty acid uptake normalized to the vehicle control. FIGS. 1D-1F show the effect of SBI-477 on FAO rates in human skeletal myotubes. […] FAO rates were determined by 3H-palmitate oxidation (n=5). […] Total cellular triglyceride levels were determined following incubation with SBI-477 (10 μM) for 24 hours with etomoxir (50 μM) in the absence (FIG. 1E) or presence of 1 mM carnitine (FIG. 1F) (n=4). *p<0.05 vs. vehicle control.

[1] = Intracellular lipolysis rates; format: cell-based; settings: data not shown
DGAT1/2 = assay: Direct inhibition of DGAT1/2 activity; format: biochemical; settings: data not shown
ARRDC4 = ARRDC4 expression by quantitative RT-PCR in human myotubes; format: cell-based; settings: 24 hours
Protocol: FIGS. 4A-C show downregulation of TXNIP and ARRDC4 expression by SBI-477. (FIG. 4A) TXNIP and ARRDC4 mRNA levels as determined by quantitative RT-PCR in human myotubes treated with SBI-477 (10 μM) or DGAT1 inhibitor (DGATi, […]) for 24 hours in the absence or presence of 100 μM oleate (n=4). Expression is shown relative to vehicle/BSA treatment. (FIG. 4B) TXNIP gene expression following exposure to a dose range of SBI-477 for 24 hours (n=4). (FIG. 4C) Left, Effect of SBI-477 on TXNIP protein levels as determined by western blot analysis by SBI-477. Right, Quantitation of the TXNIP western blot data is shown (n=5). *p<0.05 vs. Vehicle/BSA control, †p<0.05 vs. Vehicle/oleate by one-way ANOVA with Bonferroni post hoc test. The data are shown as mean±SD.
Total RNA was isolated using RNeasy Mini Kit (Qiagen) according to the manufacturer's instructions. cDNA was synthesized using the Affinity Script cDNA Synthesis Kit (Stratagene) with 0.5 μg of total RNA. PCR reactions were performed in triplicate […] Roche LightCycler® 480 Instrument II) with specific primers for each gene.

human TXNIP promoter = assay: TXNIP promoter luciferase reporter assay in H9c2 myocytes; format: cell-based, rat; settings: 24 hours
Protocol: Transient transfections were performed using Attractene (Qiagen) according to the manufacturer's protocols. A full length (1.5 kb) and two serial deletion (1.0 kb and 0.5 kb) reporters of the human TXNIP promoter were generously provided by Dr. Fumihiko Urano (Washington University School of Medicine). Mutation of the carbohydrate-responsive elements (ChoREs) of the reporters was generated by QuikChange II Site-Directed Mutagenesis kit (Agilent). H9c2 myoblast cells (ATCC) were cotransfected with 700 ng of the reporter and 25 ng of CMV promoter driven Renilla luciferase as a control for transfection efficiency. Eighteen hours after transfection, the cells were cultured in DMEM supplemented with 1% fetal bovine serum to induce differentiation for 4 days. SBI-477 was added during the last 24 hours at the indicated concentration. After compound incubation, luciferase activity was measured using the Dual-Glo luciferase assay system (Promega) according to the manufacturer's protocols.

For `COc1ccc(-c2csc(NC(=O)c3ccc(OCC(=O)N4CCOCC4)c(OC)c3)n2)cc1` [Cpd. 7, 3-methoxy-N-(4-(4-methoxyphenyl)thiazol-2-yl)-4-(2-morpholino-2-oxoethoxy)benzamide], the “Levels of ceramide and total sphingomyelin” value (human skeletal myotubes) was “not significantly altered”, the DAG species levels (human skeletal myotubes; 24 hour exposure) was “reduced” and the TAG species levels (human skeletal myotubes; 24 hour exposure) was “reducing all TAG species measured”. For the same molecule, the “Cellular fatty acid uptake” value (primary human myotubes) was “not due to blocking cellular fatty acid uptake”, the Intracellular lipolysis rates [1] was “not due to blocking cellular fatty acid uptake or increasing intracellular lipolysis rates” and the “Direct inhibition of DGAT1/2 activity” value (DGAT1/2) was “not found that SBI-477 directly inhibits”. The ARRDC4 expression (ARRDC4) was “robust, dose-dependent downregulation” and the “TXNIP promoter activity (luciferase)” value (human TXNIP promoter) was “decreased promoter activity in a dose dependent manner”.

Source: US11028061B2, “Modulators of myocyte lipid accumulation and insulin resistance and methods of use thereof” (Sanford Burnham Prebys Medical Discovery Institute, priority 2015, dated 2021)
